Several values for one entry are separate records, joined by “and”; a condition that tells them apart may be missing. Equal values may be shown once. Read-outs that look alike come from different tables or passages of the source.
Assays:
GK rats = assay: GK rat acute efficacy (glucose, insulin, glucagon after single dose); format: in vivo; settings: 30 mpk
Description: Ambient blood glucose was measured via tail snip with a glucometer (OneTouch Ultra, Lifescan Inc., Milpitas, CA). Body weights were then measured, and food was removed approximately 1 hr post lights on. Animals were sorted into treatment groups based on ambient glucose. At approximately 10 AM, glucose was measured and blood for insulin, glucagon, and drug exposure was collected. […] Each compound tested was dosed at its maximal effective dose determined through a series of dose titrations using this experimental paradigm (data not shown). Effects of treatment on glucose, insulin, and glucagon were measured at 1, 2, 4, and 24 hrs post dose. After the 4 hr blood collection, food was returned overnight and removed the next day at 1 hr post lights on.
Blood for insulin, glucagon, GLP-1, GIP, and PYY measurements was collected into K2EDTA Microtainer tubes (BD, Franklin Lakes, NJ) pre-treated with DPP4 inhibitor (Millipore, Billerica, MA) and cOmplete™ Protease Inhibitor Cocktail Tablets (Roche Diagnostics, Indianapolis, IN). Tubes were centrifuged for 10 minutes at 5000 RPM, and plasma was aliquotted for analysis. Plasma insulin levels were measured via EIA (Mesoscale Discovery ELISA Kit, Gaithersburg MD). Rat plasma total GLP-1 was measured using Total GLP-1 (ver.2) Assay Kit (Cat#: K150JVC). The measurement of active GLP-1 was carried out in a similar manner as that described for total GLP-1 assay with the exception that MSD Active GLP-1 (ver. 2) assay kit (Cat# K150JWC) was used. Rat plasma glucagon was measured using an in-house glucagon assay developed as a MSD format sandwich immunoassay (Merck & Co., Inc., MRL, Kenilworth, NJ USA). The antibody specificity was cross validated via mass- spec using procedures described in Lee et al. Briefly, MSD Streptavidin Gold plates were coated with 2 μg/ml biotin mouse monoclonal antibody generated to glucagon. Test samples were added to the plates and a separate Sulfo- tagged monoclonal antibody was used to detect the captured glucagon protein (2 μg/ml). The ELISA was carried out in the standard reagents in the MSD format. The plate was read on the SECTOR Imager 6000 Reader. Metabolic hormones GIP (Gastric Inhibitory Polypeptide) and PYY (Peptide YY) were measured in rat plasma using the Rat Metabolic Magnetic Bead Panel (EMD Millipore, Billerica, MA). The assay was performed according to manufacturer protocol.

human GPR40 = human GPR40 (Homo sapiens, UniProt O14842); assay: GPR40 binding assay, AgoPAM tracer [3H]25 ([3H]AP9); set-up: expressed in transfected cells; host or cells: CHO / CHO-K1 cells, membrane preparation;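 on % Bound Normalized to 100: 100% bound is tracer binding in DMSO-only wells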;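 on %Bound: 100% bound is tracer binding in DMSO-only wells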
Sequence of human GPR40 (O14842 whole entry): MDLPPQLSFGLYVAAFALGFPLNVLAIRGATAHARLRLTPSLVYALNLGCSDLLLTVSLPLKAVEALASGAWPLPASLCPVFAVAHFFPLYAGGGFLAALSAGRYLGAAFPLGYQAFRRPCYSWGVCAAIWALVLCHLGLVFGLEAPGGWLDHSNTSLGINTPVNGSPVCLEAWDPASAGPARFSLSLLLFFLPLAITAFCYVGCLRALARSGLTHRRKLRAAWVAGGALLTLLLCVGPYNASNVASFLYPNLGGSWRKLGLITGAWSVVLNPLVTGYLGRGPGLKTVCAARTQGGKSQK
Description: Two small molecule tracers, the partial agonist [3H][…] and the AgoPAM [3H]25, are used to measure compound affinity at each site as described previously. Because of the allosteric coupling of the two sites and the nature of the assay, addition of a compound will either displace (binds to same site) or augment (binds to allosterically coupled site) radiotracer. Membranes expressing GPR40 were prepared from CHO cells stably expressing human GPR40. […] Sigma P8830) and were homogenized in 50 ml aliquots with a motor-driven glass Dounce homogenizer, 15 strokes at 1900 rpm on wet ice, repeating once. Homogenates were centrifuged at 2200 rpm for 10 min at 4°C. Supernatants were carefully removed and pooled. Homogenization and centrifugation were repeated until the debris pellet was translucent to maximize membrane recovery. Supernatants were then centrifuged at […] rpm for 20 min. at 4°C. […] Protein concentration was determined by Pierce BCA kit. […] The beads and membrane mixture is then vigorously mixed for 30 minutes at room temperature prior to addition to the assay. […] Next, 15 μl of the radioligand and 35 μl of the beads/membranes solution is added to each well. The assay plates are then sealed and incubated for 30 minutes at room temperature on an orbital shaker. The plates are allowed to settle for 16 hours and then counted on a TopCount scintillation counter (PE). […] Maximal % bound and IC50 are then determined for each test compound. 5 μg/well membrane together with 200 μg/well of PVT WGA SPA beads (GE #RPNG-0001) were suspended in a white 96 well plate with a final concentration of 50 μl/well in assay buffer (50 mM Tris, 10 mM MgCl2, and 2 mM EDTA). […] The plate is briefly mixed and incubated for 3-18 h at room temperature, before it is read on a MicroBeta plate counter (Perkin Elmer, MS, USA).

[1] = test system: pancreatic islets from wild type and GPR40−/− mice; assay: Isolated pancreatic islets static GDIS assay (insulin, glucagon secretion); format: cell-based, mouse; set-up: Islet insulin / Islet insulin, mean: unit not given here; settings: for glucagon secretion from islets: ex vivo; for Islet Glucagon / Islet insulin: individual replicates; for Islet Glucagon, mean / Islet insulin, mean: mean of replicates
Description: Pancreatic islets of Langerhans were isolated from wild type and GPR40^−/− mice (littermates) by collagenase digestion and discontinuous Ficoll gradient separation. […] Insulin secretion was determined by a 1-h static incubation in Krebs-Ringer bicarbonate (KRB) buffer in a 96-well format as previously described. […] The buffer was removed from the wells at the end of the incubation and assayed for insulin levels using the Insulin ELISA kit (ALPCO, Salem, NH) and glucagon level using glucagon ELISA kit (ALPCO, Salem, NH).

[2] = radioligand L-005306257, dose 0.318285 nM
[3] = radioligand L-005306257, dose 1.00578 nM
[4] = radioligand L-005306257, dose 3.17827 nM
[5] = radioligand L-005306257, dose 10.0433 nM
[6] = radioligand L-005306257, dose 31.7369 nM
[7] = radioligand L-005306257, dose 100.289 nM
[8] = radioligand L-005306257, dose 316.912 nM
[9] = radioligand L-005306257, dose 1001.44 nM
[10] = radioligand L-005306257, dose 3164.56 nM
[11] = radioligand L-005306257, dose 10000 nM

COc1ccc(F)c(-c2ccc([C@@H]3CCc4ccc([C@H](C5CC5)[C@H](C)C(=O)O)cc4O3)cc2)c1 [AP1]
Plasma Glucagon Over Time (Fig 2C) (GK rats; time 0, individual animals): 55.7691 pg/mL and 68.321 pg/mL and 77.904 pg/mL and 111.395 pg/mL and 52.9088 pg/mL and 48.0782 pg/mL and 166.643 pg/mL and 75.2113 pg/mL | Plasma Insulin Over Time (Fig 2B) (GK rats; time 0, individual animals): 1.368 ng/mL and 2.115 ng/mL and 2.541 ng/mL and 1.628 ng/mL and 3.5154 ng/mL and 1.38 ng/mL and 1.662 ng/mL and 2.024 ng/mL | Plasma Glucagon Over Time (Fig 2C) (GK rats; time 1, individual animals): 68.4222 pg/mL and 203.855 pg/mL and 443.444 pg/mL and 510.501 pg/mL and 371.284 pg/mL and 243.688 pg/mL and 323.455 pg/mL and 532.086 pg/mL | Plasma Insulin Over Time (Fig 2B) (GK rats; time 1, individual animals): 2.471 ng/mL and 8.448 ng/mL and 6.286 ng/mL and 2.7997 ng/mL and 8.046 ng/mL and 6.547 ng/mL and 6.926 ng/mL and 4.435 ng/mL | Plasma Glucagon Over Time (Fig 2C) (GK rats; time 2, individual animals): 677.742 pg/mL and 147.407 pg/mL and 198.886 pg/mL and 95.5346 pg/mL and 199.272 pg/mL and 184.367 pg/mL and 336.315 pg/mL and 387.077 pg/mL | Plasma Insulin Over Time (Fig 2B) (GK rats; time 2, individual animals): 2.6557 ng/mL and 2.936 ng/mL and 3.027 ng/mL and 0.7256 ng/mL and 3.203 ng/mL and 2.271 ng/mL and 3.072 ng/mL and 2.0183 ng/mL | Plasma Glucagon Over Time (Fig 2C) (GK rats; time 4, individual animals): 426.615 pg/mL and 76.1995 pg/mL and 36.6178 pg/mL and 86.9884 pg/mL and 83.1703 pg/mL and 202.015 pg/mL and 219.163 pg/mL and 202.907 pg/mL | Plasma Insulin Over Time (Fig 2B) (GK rats; time 4, individual animals): 2.117 ng/mL and 1.616 ng/mL and 1.477 ng/mL and 1.139 ng/mL and 1.988 ng/mL and 2.587 ng/mL and 2.052 ng/mL | Plasma Glucagon Over Time (Fig 2C) (GK rats; time 24, individual animals): 168.326 pg/mL and 107.348 pg/mL and 18.8494 pg/mL and 200.464 pg/mL and 140.291 pg/mL and 122.096 pg/mL and 264.039 pg/mL and 261.868 pg/mL | Plasma Insulin Over Time (Fig 2B) (GK rats; time 24, individual animals): 1.016 ng/mL and 0.9428 ng/mL and 0.1505 ng/mL and 1.222 ng/mL and 1.548 ng/mL and 1.3655 ng/mL and 1.314 ng/mL and 1.563 ng/mL | Binding Results, % in parentheses, [^3H]AP9 (human GPR40; WT human GPR40, maximal % (not defined)): (101%) | IC50 (human GPR40; WT human GPR40, n = 2–13, read-out: Binding Results [IC50, nM], [^3H]AP9): 2.7 ± 0.7 nM | binding of [^3H]25 (human GPR40; human GPR40 membranes, competition binding): displace | %Act, HUMAN GPR40, Binding Data (human GPR40; individual determinations, AgoPAM tracer (per Table 2)): 99% and 102% | IC50 (human GPR40; individual determinations, AgoPAM tracer (per Table 2), read-out: IC50 (nM), HUMAN GPR40, Binding Data): 2.2 nM and 3.2 nM | % Bound Normalized to 100 (human GPR40; [2]): 100.21% | %Bound (human GPR40; [2]): 94.32% | inhibition at 0.000318285 µM (human GPR40; [2]): 5.68% | % Bound Normalized to 100 (human GPR40; [3]): 76.16% | %Bound (human GPR40; [3]): 70.27% | inhibition at 0.00100578 µM (human GPR40; [3]): 29.7% | % Bound Normalized to 100 (human GPR40; [4]): 60.56% | %Bound (human GPR40; [4]): 54.67% | inhibition at 0.00317827 µM (human GPR40; [4]): 45.3% | % Bound Normalized to 100 (human GPR40; [5]): 29.85% | %Bound (human GPR40; [5]): 23.96% | inhibition at 0.0100433 µM (human GPR40; [5]): 76% | % Bound Normalized to 100 (human GPR40; [6]): 20.26% | %Bound (human GPR40; [6]): 14.37% | inhibition at 0.0317369 µM (human GPR40; [6]): 85.6% | % Bound Normalized to 100 (human GPR40; [7]): 11.49% | %Bound (human GPR40; [7]): 5.60% | inhibition at 0.100289 µM (human GPR40; [7]): 94.4% | % Bound Normalized to 100 (human GPR40; [8]): 7.10% | %Bound (human GPR40; [8]): 1.21% | inhibition at 0.316912 µM (human GPR40; [8]): 98.8% | % Bound Normalized to 100 (human GPR40; [9]): 8.08% | %Bound (human GPR40; [9]): 2.18% | inhibition at 1.00144 µM (human GPR40; [9]): 97.8% | % Bound Normalized to 100 (human GPR40; [10]): 6.45% | %Bound (human GPR40; [10]): 0.56% | inhibition at 3.16456 µM (human GPR40; [10]): 99.4% | % Bound Normalized to 100 (human GPR40; [11]): 7.75% | %Bound (human GPR40; [11]): 1.86% | inhibition at 10 µM (human GPR40; [11]): 98.1% | glucagon secretion from islets ([1]; GPR40-/- mouse islets): abolished | Islet Glucagon ([1]; KO mouse islets, G2, 1uM): 8.295 pg/ml/ islet and 16.584 pg/ml/ islet and 5.331 pg/ml/ islet and 9.664 pg/ml/ islet and 1.86 pg/ml/ islet and 24.388 pg/ml/ islet and 22.826 pg/ml/ islet and 23.18 pg/ml/ islet and 16.858 pg/ml/ islet and 27.237 pg/ml/ islet | Islet insulin ([1]; KO mouse islets, G2, 1uM): 0.224 and 0.186 and 0.933 and 0.721 and 1.124 and 0.514 and 0.261 and 0.152 and 0.181 and 0.215 | Islet Glucagon, mean ([1]; KO mouse islets, G2, 1uM): 15.6223 pg/ml/ islet | Islet insulin, mean ([1]; KO mouse islets, G2, 1uM): 0.4511 | Islet Glucagon ([1]; KO mouse islets, G16, 1uM): 5.183 pg/ml/ islet and 12.803 pg/ml/ islet and 9.635 pg/ml/ islet and 3.883 pg/ml/ islet and 11.858 pg/ml/ islet and 6.688 pg/ml/ islet and 0.121 pg/ml/ islet and 5.519 pg/ml/ islet and 6.26 pg/ml/ islet and 3.878 pg/ml/ islet | Islet insulin ([1]; KO mouse islets, G16, 1uM): 2.959 and 3.403 and 3.966 and 2.272 and 3.839 and 3.783 and 2.961 and 3.664 and 2.593 and 1.94 | Islet Glucagon, mean ([1]; KO mouse islets, G16, 1uM): 6.5828 pg/ml/ islet | Islet insulin, mean ([1]; KO mouse islets, G16, 1uM): 3.138 | Islet Glucagon ([1]; WT mouse islets, G2, 1uM): 55.828 pg/ml/ islet and 87.628 pg/ml/ islet and 54.498 pg/ml/ islet and 21.019 pg/ml/ islet and 35.248 pg/ml/ islet and 60.615 pg/ml/ islet and 73.937 pg/ml/ islet and 63.3 pg/ml/ islet and 50.656 pg/ml/ islet and 33.503 pg/ml/ islet | Islet insulin ([1]; WT mouse islets, G2, 1uM, listed as L-005306254): 0.53 and 1.151 and 0.66 and 1.39 and 2.61 and 1.55 and 1.058 and 0.71 and 0.4565 and 0.7725 | Islet Glucagon, mean ([1]; WT mouse islets, G2, 1uM): 53.6232 pg/ml/ islet | Islet insulin, mean ([1]; WT mouse islets, G2, 1uM): 1.0888 | Islet Glucagon ([1]; WT mouse islets, G16, 1uM): 29.473 pg/ml/ islet and 34.729 pg/ml/ islet and 57.354 pg/ml/ islet and 33.737 pg/ml/ islet and 7.252 pg/ml/ islet and 14.915 pg/ml/ islet and 23.157 pg/ml/ islet and 23.385 pg/ml/ islet and 38.776 pg/ml/ islet | Islet insulin ([1]; WT mouse islets, G16, 1uM, listed as L-005306254): 12.607 and 12.478 and 13.17 and 12.065 and 9.432 and 10.077 and 12.044 and 12.3 and 10.845 and 11.903 | Islet Glucagon, mean ([1]; WT mouse islets, G16, 1uM): 29.1976 pg/ml/ islet | Islet insulin, mean ([1]; WT mouse islets, G16, 1uM): 11.6921 | glucagon secretion from islets ([1]; WT mouse islets): significantly elevated
